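Compound exposure: 48 hours, 5 concentrations, 96-well plates. Abbreviation: GI50, concentration required for 50% inhibition of growth. At the TGI there is no net growth.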
Legend:
Assay in all cases: DTP human tumour cell line panel, 48 h; in the data active means GI50 below about 0.43 µM; inactive means the rest
[1] = system: OVCAR-3 ovarian
[2] = system: HCT-116 colon
[3] = system: LOX IMVI melanoma
[4] = system: OVCAR-5 ovarian
[5] = system: HCC-2998 colon
[6] = system: OVCAR-4 ovarian
[7] = system: SNB-19 CNS
[8] = system: HL-60(TB) leukemia
[9] = system: NCI-H226 lung
[10] = system: NCI-H460 lung
[11] = system: SR leukemia
[12] = system: HOP-92 NSCLC
[13] = system: KM12 colon
[14] = system: TK-10 renal
[15] = system: U251 CNS
[16] = system: BT-549 breast
[17] = system: NCI-H522 lung
[18] = system: SK-MEL-2 melanoma
[19] = system: MALME-3M melanoma
[20] = system: NCI/ADR-RES ovarian
[21] = system: UO-31 renal
[22] = system: UACC-257 melanoma
[23] = system: MDA-MB-435
[24] = system: OVCAR-8 ovarian
[25] = system: SF-268 CNS
[26] = system: HS 578T breast
[27] = system: DU-145 prostate
[28] = system: HT29 colon
[29] = system: RPMI-8226 leukemia
[30] = system: CAKI-1 renal
[31] = system: COLO 205 colon
[32] = system: K-562 leukemia
[33] = system: SF-295 CNS
[34] = system: MCF7 breast
[35] = system: MDA-MB-231 breast
[36] = system: ACHN renal
[37] = system: EKVX NSCLC
[38] = system: SN12C renal
[39] = system: PC-3 prostate
[40] = system: A498 renal
[41] = system: SF-539 CNS
[42] = system: HOP-62 NSCLC
[43] = system: SK-MEL-28 melanoma
[44] = system: SW-620 colon
[45] = system: SK-MEL-5 melanoma
[46] = system: MOLT-4 leukemia
[47] = system: A549 NSCLC
[48] = system: 786-0 renal
[49] = system: IGROV1 ovarian
[50] = system: RXF 393 renal
[51] = system: UACC-62 melanoma
[52] = system: CCRF-CEM leukemia
[53] = system: NCI-H23 lung
[54] = system: HCT-15 colon
[55] = system: M14 melanoma
[56] = system: SK-OV-3 ovarian
[57] = system: SNB-75 CNS
[58] = system: T-47D breast

O=c1[nH]n(CCc2ccccc2CCl)c2ccc([N+](=O)[O-])cc12
36.1 µM: TGI [37]
> 100 µM: TGI [1] | TGI [2] | TGI [3] | TGI [4] | TGI [5] | TGI [7] | TGI [8] | TGI [9] | TGI [10] | TGI [11] | TGI [12] | TGI [13] | TGI [14] | TGI [15] | TGI [16] | TGI [17] | TGI [18] | TGI [19] | TGI [20] | TGI [21] | TGI [22] | TGI [23] | TGI [24] | TGI [25] | TGI [26] | TGI [27] | TGI [28] | TGI [29] | TGI [30] | TGI [31] | TGI [32] | TGI [33] | TGI [34] | TGI [35] | TGI [36] | TGI [38] | TGI [39] | TGI [40] | TGI [41] | TGI [42] | TGI [43] | TGI [44] | TGI [45] | TGI [46] | TGI [47] | TGI [48] | TGI [49] | TGI [50] | TGI [51] | TGI [52] | TGI [53] | TGI [54] | TGI [55]
92 µM: TGI [6]

O=C1CC(c2ccsc2)n2cccc21 (stereo not drawn)
> 100 µM: TGI [1] | TGI [2] | TGI [56] | TGI [4] | TGI [5] | TGI [6] | TGI [7] | TGI [8] | TGI [9] | TGI [11] | TGI [12] | TGI [13] | TGI [14] | TGI [15] | TGI [17] | TGI [57] | TGI [18] | TGI [20] | TGI [21] | TGI [22] | TGI [23] | TGI [24] | TGI [25] | TGI [26] | TGI [27] | TGI [28] | TGI [29] | TGI [30] | TGI [31] | TGI [32] | TGI [33] | TGI [34] | TGI [35] | TGI [58] | TGI [36] | TGI [37] | TGI [38] | TGI [39] | TGI [40] | TGI [41] | TGI [42] | TGI [43] | TGI [44] | TGI [45] | TGI [47] | TGI [48] | TGI [49] | TGI [50] | TGI [51] | TGI [52] | TGI [53] | TGI [54] | TGI [55]

C=CC1C(CC2OC(CO)C(O)C(O)C2O)OC=C2C(=O)OCCC21O (stereo not drawn)
90.3 µM: TGI [14]
71.4 µM: TGI [18]
65.7 µM: TGI [55]
62.4 µM: TGI [24]
8.43 µM: TGI [29]
51 µM: TGI [19]
75.6 µM: TGI [38]
28.9 µM: TGI [52]
28 µM: TGI [15]
78.7 µM: TGI [30]
29.9 µM: TGI [44]
61.9 µM: TGI [53]
62.5 µM: TGI [33]
34.4 µM: TGI [5]
32.1 µM: TGI [2]
53.1 µM: TGI [49]
18.6 µM: TGI [57]
23.4 µM: TGI [3]
30.1 µM: TGI [13]
inactive: GI50 [1] 12.4 µM | GI50 [2] 16.2 µM | GI50 [56] 46.6 µM | GI50 [3] 8.37 µM | GI50 [4] 14.4 µM | GI50 [5] 15.3 µM | GI50 [6] 5.82 µM | GI50 [7] 13.8 µM | GI50 [9] 20.9 µM | GI50 [10] 28.4 µM | GI50 [11] 3.32 µM | GI50 [12] 1.68 µM | GI50 [13] 3.05 µM | GI50 [14] 26 µM | GI50 [15] 13.2 µM | GI50 [17] 4.72 µM | GI50 [57] 1.84 µM | GI50 [18] 22.4 µM | GI50 [19] 17.8 µM | GI50 [20] 24 µM | GI50 [21] 16.4 µM | GI50 [22] 20.4 µM | GI50 [23] 13.7 µM | GI50 [24] 16.7 µM | GI50 [25] 24.3 µM | GI50 [26] 34.6 µM | GI50 [27] 13.8 µM | GI50 [28] 2.23 µM | GI50 [29] 2.32 µM | GI50 [30] 30.6 µM | GI50 [31] 19.9 µM | GI50 [32] 6.6 µM | GI50 [33] 23.5 µM | GI50 [34] 21.6 µM | GI50 [35] 40.9 µM | GI50 [58] 32 µM | GI50 [36] 29.8 µM | GI50 [37] 39.8 µM | GI50 [38] 20.8 µM | GI50 [39] 11 µM | GI50 [42] 13.4 µM | GI50 [44] 5.38 µM | GI50 [45] 15.7 µM | GI50 [46] 3.78 µM | GI50 [47] 18.5 µM | GI50 [48] 2.67 µM | GI50 [49] 8.36 µM | GI50 [51] 21.2 µM | GI50 [52] 5.32 µM | GI50 [53] 24.9 µM | GI50 [54] 19.5 µM | GI50 [55] 22.3 µM
44.5 µM: TGI [4] | TGI [23]
76.5 µM: TGI [9]
37.1 µM: TGI [7]
53.3 µM: TGI [51]
49.9 µM: TGI [54]
34.5 µM: TGI [17]
26.5 µM: TGI [11]
27.6 µM: TGI [1]
99.6 µM: TGI [35]
27.9 µM: TGI [39]
37.5 µM: TGI [45]
48.9 µM: TGI [47]
9.35 µM: TGI [12]
50.9 µM: TGI [22]
30.5 µM: TGI [46]
> 100 µM: TGI [56] | TGI [10] | TGI [20] | TGI [21] | TGI [26] | TGI [32] | TGI [34] | TGI [58] | TGI [36] | TGI [37]
8.02 µM: TGI [28]
89 µM: TGI [25]
30.2 µM: TGI [6]
active: GI50 [43] 0.116 µM
35.5 µM: TGI [42]
62.6 µM: TGI [27]
45.2 µM: TGI [31]
17.5 µM: TGI [48]
19.2 µM: TGI [43]

CN(C)c1ccc(/C=c2/c3ccccc3n3c2cc(/C=C/c2ccccc2)[n+]3C)cc1
> 100 µM: TGI [32]
1.86 µM: TGI [6]
1.37 µM: TGI [27]
0.132 µM: TGI [41]
1.22 µM: TGI [36]
> 50.6 µM: TGI [20]
0.123 µM: TGI [58]
1.16 µM: TGI [42]
0.591 µM: TGI [34]
0.0821 µM: TGI [52]
0.944 µM: TGI [33]
1.08 µM: TGI [5]
0.795 µM: TGI [1]
1.14 µM: TGI [56]
3.77 µM: TGI [14]
0.272 µM: TGI [45]
3.49 µM: TGI [54]
51.2 µM: TGI [30]
0.315 µM: TGI [31]
